These results are taken from ChEMBL document CHEMBL1136284, “An aminopyridazine-based inhibitor of a pro-apoptotic protein kinase attenuates hypoxia-ischemia induced acute brain injury” (Bioorg Med Chem Lett, 2003).

SMILES strings stand for the structures.

Assay [1] can be described thus: Displacement of ATP from Death associated protein kinase.
In a further assay the target is Protein kinase C (PKC). The experiment in a line: Inhibition of Protein kinase C. Format: protein assay.
Assay [2] is filed under the species Rattus norvegicus. The experiment in a line: Brain hemisphere weight loss 6 hr after HI injury in rats.
For assay [3], the system named is Rattus norvegicus. Nature of the assay: Brain hemisphere weight loss after 5 mg/kg ip administration prior to HI injury in rats. The note with it: route intraperitoneal.
For assay [4], the target named is cAMP-dependent protein kinase (PKA) (Homo sapiens, UniProt P22694+P17612+P22612). The experiment in a line: Inhibition of Protein kinase A. Format: protein assay.
The nature of assay [5]: Inhibition of Death associated protein kinase.
The next assay addresses CaM kinase II (Homo sapiens, UniProt Q13557+Q13555+Q13554+Q9UQM7). Nature of the assay: Inhibition of Calcium/calmodulin-dependent protein kinase type II. Format: protein assay.

As for `N=c1cc2c(nn1CCCCCCCCCCC(=O)Nc1ccc(-c3ccccc3)nn1)-c1ccccc1CC2`, the results for the Ki in assay [1] and in assay [5] were 20 µM and 15 µM, respectively. Moreover, the values for the IC50 (against Protein kinase C (PKC); in assay [4]; in assay [5]) were over 100 µM, over 100 µM and 13 µM, respectively. The Weight loss in the assay listed under Rattus norvegicus [2] came out at 21.6%; in the assay with Rattus norvegicus [3], 17.3%.
On to `N=c1ccc(-c2ccccc2)nn1CCCCCCCCCCC(=O)Nc1ccc(-c2ccccc2)nn1`, for which the IC50 on CaM kinase II is over 100 µM; on Protein kinase C (PKC) it was 3 µM; in assay [4], over 100 µM; in assay [5], 22 µM.
As to `Cc1ccc(=N)n(CCCCCCCCCCC(=O)Nc2ccc(-c3ccccc3)nn2)n1`, the IC50 was over 100 µM at CaM kinase II, 31 µM on Protein kinase C (PKC), over 100 µM in assay [4] and over 100 µM in assay [5].
Take `Cc1cc(-c2ccccc2)nnc1NCCN1CCOCC1` [MINAPRINE]: the concentration for half-maximal inhibition (IC50) (at CaM kinase II; against Protein kinase C (PKC); in assay [4]; in assay [5]) was over 100 µM in each case.

What is called Ki is the dissociation constant of the complex between target and ligand, obtained from inhibition or displacement. Low values mean higher affinity, high ones lower affinity. As a reminder, the IC50 is the concentration at which inhibition is half-maximal.
